Measurements taken from US11059823B2, “Small molecule inhibitors of the JAK family of kinases” (Janssen Pharmaceutica NV, priority 2016, dated 2021).

What was measured:
[1] = Physical stability of crystalline embodiments of compound Ex. 1 (polymorph screening, HT-XRPD); type: physicochemical; details: for physical stability after exposure to AAC: accelerated aging conditions, 40° C./70% RH, two days
Experimental: Long term slurry experiments were performed by suspending compound embodiment 1s in twenty neat solvents and stirred at room temperature for two weeks and at 50° C. for one week. Upon completion of the equilibration time, the residual solids were separated from the mother liquors. The solids were dried under ambient conditions and dried under vacuum (5 mBar) before being analyzed by HT-XRPD. Subsequently, the solids were exposed to accelerated aging conditions (40° C./70% relative humidity) for two days and again analyzed by HT-XRPD.
Embodiment is converted to hydrated embodiment 10 when it was exposed to 100% RH at 25° C. […] This behavior is attributable to an unequally strong binding of all the hydration/solvation molecules. In this case, embodiment 10 would have a less strongly bound second water molecule that would be lost under ambient conditions. More precisely, the physical stability of embodiment is was investigated in climate chambers by exposing a 20 mg sample of such embodiment to 40° C. and 70% relative humidity for four days, and another 20 mg sample of the same embodiment was exposed also for four days to 25° C. and 100% relative humidity. After four days, the various solid samples were analyzed by HR-XRPD, the crystal cell parameters were determined and the diffractograms were indexed. From bottom to top, the first diffractogram in FIG. 6 corresponds to embodiment is as starting material, and the second corresponds to the same form after a 4-day exposure to 40° C. and 70% relative humidity, noted as “1s 70 RH” in the same figure. […] Indexing for such form was not possible due to the small amount in which it was present. The third diffractogram corresponds to embodiment is after a 4-day exposure to 25° C. and 100% relative humidity, noted as “10” in the same figure. […] Upon dehydration, both embodiments 1s and 10 re-crystallized to the anhydrous form with a melting point of 148° C.
The mother liquors of the solvent equilibration experiments performed at 50° C. were filtered at 50° C. to remove any particulate matter. […] When solids had precipitated during aging these solids were separated from the liquid, dried under ambient conditions and under vacuum, and analyzed by HT-XRPD. The remaining mother liquors were allowed to slowly evaporate and the remaining solids were analyzed by HT-XRPD. The samples in which no precipitation occurred were placed under vacuum and the dried solids were analyzed by HT-XRPD. All the solids were then exposed to AAC (2 days at 40° C./70% RH) and re-analyzed by HT-XRPD.
The cooling/evaporative crystallization experiments at L scale were performed in a 96-well plate, using 12 neat solvents and 12 solvent mixtures and applying four temperature profiles. […] Upon completion of the temperature profile the solvents were allowed to evaporate at low ambient pressure (24 hours) and the remaining solids were analyzed by HT-XRPD before and after exposure to AAC for 2 days (40° C./70% RH).
The cooling crystallization experiments with hot filtration were performed from supersaturated solutions of compound Ex. 1 prepared at 50° C. in different solvent mixtures. […] The vials in which solids had precipitated after the temperature profile were centrifuged and the solids were separated from the liquid and analyzed by HT-XRPD (after drying under vacuum). If no solids had precipitated the solutions were evaporated under vacuum and the solids analyzed by HT-XRPD. […]

[2] = test system: moderate to severe CD; details: 4 week/Phase 2 clinical trial; cited from earlier work
[3] = test system: MDCK-MDR1 cell line; test: MDCK-MDR1 permeability assay; type: in vitro ADME; details: apical-to-basolateral, with P-gp inhibitor elacridar (2 μM), 5 μM, 60 min
Experimental: Permeability measurements were conducted according to the Cyprotex protocol using the MDCK-MDR1 cell line obtained from the NIH (Rockville, Md., USA). […] The cells in this assay form a cohesive sheet of a single cell layer filing the surface area of the culture dish, also known as a confluent monolayer, and on day four the test compound was added to the apical side of the membrane and the transport of the compound across the monolayer was monitored over a time period of 60 min.
Test compounds were dissolved in DMSO at a concentration of 10 mM. The dosing solutions were prepared by diluting test compound with assay buffer (Hanks Balanced Salt Solution), pH 7.4, at a final concentration of 5 μM. For assessment of apical to basolateral (“A-B”) permeability, buffer was removed from the apical compartment and replaced with test compound dosing solution with or without the permeability glycoprotein (“PgP”, “P-gP”, “Pgp” or “P-gp”) inhibitor elacridar (2 μM). For assessment of basolateral to apical (“B-A”) permeability, buffer was removed from the companion plate and replaced with test compound dosing solution. Incubations were carried out in duplicate at 37° C. in an atmosphere of 5% CO2 with a relative humidity of 95%. Each assay included the reference markers propranolol (high permeability) and prazosin (PgP substrate). After incubation for 60 minutes, apical and basolateral samples were diluted and test compounds quantified by LC/MS/MS using an 8-point calibration in the range 0.0039 to 3 μM with appropriate dilution of the samples (receiver dilution factor=1; donor and Co dilution factor=10). The permeability coefficient (Papp) for each compound was calculated from the following equation: Papp=(dQ/dt)/(C0×S), where dQ/dt is the rate of permeation of the drug across the cells, C0 is the donor compartment concentration at time zero, and S is the area of the cell monolayer.
Papp(A-B) gives an indication of permeation extent across the cells in this assay, which is envisaged to model the transcellular transport across Pgp-expressing cells, such as Pgp-expressing gastrointestinal tract cells.

physical stability after exposure to AAC [1] | Compound | also measured
physically unstable | CC(C)(O)CNC(=O)Cc1nc2cnc3[nH]ccc3c2n1[C@H]1CC[C@H](CC#N)CC1 [Embodiment 5] | –
stable solid form | CC(C)(O)CNC(=O)Cc1nc2cnc3[nH]ccc3c2n1[C@H]1CC[C@H](CC#N)CC1 [Embodiment 6] | –
– | CC(C)(O)CNC(=O)Cc1nc2cnc3[nH]ccc3c2n1[C@H]1CC[C@H](CC#N)CC1 [Embodiment 10] | physical stability under ambient conditions ([1]; ambient conditions): limited physical stability
– | C[C@@H]1CCN(C(=O)CC#N)C[C@@H]1N(C)c1ncnc2[nH]ccc12 [tofacitinib] | clinical efficacy in Crohn's disease [2]: failure to achieve clinical efficacy
converted to embodiment 3e | CC(C)(O)CNC(=O)Cc1nc2cnc3[nH]ccc3c2n1[C@H]1CC[C@H](CC#N)CC1 [Embodiment 2] | –
physically stable | CC(C)(O)CNC(=O)Cc1nc2cnc3[nH]ccc3c2n1[C@H]1CC[C@H](CC#N)CC1 [Embodiment 7] | –
– | N#CC[C@H]1CC[C@H](n2c(CC(=O)NC3CCOCC3)nc3cnc4[nH]ccc4c32)CC1 [Ex. 5, 2-(1-((1r,4r)-4-(Cyanomethyl)cyclohexyl)-1,6-dihydroimidazo[4,5-d]pyrrolo[2,3-b]pyridin-2-yl)-N-(tetrahydro-2H-pyran-4-yl)acetamide] | MDCK-MDR1 P^eapp(A-B) @ 5 (μM) [3]: 0.5 10^−6 cm/sec
